Assay results from patent publication US20100311756A1, “METHODS FOR DELAYING THE PROGRESSION OF AT LEAST ONE OF CARDIAC HYPERTROPHY, CARDIAC REMODELING OR LEFT VENTRICULAR FUNCTION OR THE ONSET OF HEART FAILURE IN SUBJECTS IN NEED OF TREATMENT THEREOF” (TAKEDA PHARMACEUTICALS NORTH AMERICA, INC., priority 2009, published 2010).
Marks after values point to notes of the source that are not given here.

Tests used:
[1] = system: mice subjected to TAC or sham surgery; assay: TAC or sham surgery in mice, Protocol 2: febuxostat or allopurinol for three weeks beginning seven days after TAC; type: in vivo; conditions: for Anterior wall thickness at end-diastole / Anterior wall thickness at end-systole / LV ejection fraction / Lung weight / Lung/body weight / Posterior wall thickness at end-diastole / Posterior wall thickness at end-systole / Ventricle weight / Ventricle/body weight / LV fractional shortening / LV end-diastolic diameter / LV end-systolic diameter: drinking water (FBS 0.05 mg/ml, allopurinol 0.15 mg/ml) three weeks from day 7; for Survival rate: over the three-week treatment period; for TAC-induced ventricular fibrosis: histological staining
Excerpt: • Mice. Male C57/BL6 mice at 8-9 weeks of age were purchased from Jackson Laboratories (Bar Harbor, Me.) for use in this study. Mice were housed in an air-conditioned room with a 12-hour:12-hour light-dark cycle, received standard mouse chow, and drank tap water. This study was approved by the Institutional Animal Care and Use Committee of the University of Minnesota. • Experimental Protocol 1. This protocol was designed to determine whether febuxostat (2-[3-cyano-4-(2-methylpropoxy)phenyl]-4-methylthiazole-5-carboxylic acid) treatment, beginning immediately after the onset of acute pressure overload, could protect against transverse aortic constriction (TAC)-induced left ventricular (LV) hypertrophy, dysfunction and mortality. Three treatment groups were included (See Table 1, below): sham-operated mice (n=20), TAC mice treated with vehicle (0.5% methylcellulose) (n=30), and TAC mice treated with febuxostat (suspension in 0.5% methylcellulose) (n=30). To generate LV hypertrophy in a short time period with a significant incidence of cardiac mortality, TAC was created by ligating the transverse aorta against a 27 G needle to create severe LV pressure overload. Since mice tend to take in less water and food during the first 1-3 days after the TAC procedure, febuxostat (5 mg/kg/day in 250 μl vehicle) or vehicle (250 μl) was administered daily by oral gavage for a total of 8 days, with the first dose administered on the day of the surgery after the animal awoke from anesthesia (˜60 min after the TAC procedure). On the eighth day, LV function was assessed by echocardiography approximately 1 hour after the last febuxostat or vehicle dose. Approximately 3 hours after echocardiographic evaluation (4 hours after the last febuxostat or vehicle dose), the mice were weighed and blood samples collected. The animals were euthanized and the heart and lungs excised; the right and left atria were trimmed away, and the ventricles and lungs were weighed. Tissue from the left ventricle was used for histological evaluation and Western blots. • Experimental Protocol 2. This protocol was designed to determine whether administration of febuxostat (FBS) or allopurinol (AL) beginning after the onset of cardiac hypertrophy, LV dysfunction and heart failure could exert a protective effect. For this protocol, mice subjected to TAC (using a 26 gauge (G) needle to generate moderate TAC) or sham surgery were divided into six experimental groups as described in Table 1, below. Beginning seven days after TAC, animals were treated with vehicle (0.01 mg/ml NaCl, equivalent salt content as in the FBS drinking water), FBS (0.05 mg/ml) or AL (0.15 mg/ml) in drinking water for three weeks. Following three weeks of treatment, ventricular function was assessed by echocardiography. Blood samples and cardiac tissue were collected during 2-3 hours after the echocardiographic evaluation as described previously in Protocol 1.
• Minimally Invasive TAC Procedure. TAC was performed using the minimally invasive suprasternal approach described by Hu et al. (See, Hu et al., Am. J. Physiol. Heart Circ. Physiol., 3:H1261-9 (2003)). Mice were anesthetized with a mixture of 80 mg/kg ketamine and 30 mg/kg xylazine intraperitoneally. A horizontal incision was made at the level of the suprasternal notch to allow direct visualization of the transverse aorta without entering the pleural space. With the aid of a dissecting microscope, aortic constriction was performed by ligating the aorta between the right innominate artery and the left carotid artery over a 27 G) needle using 5-0 silk suture. The needle was immediately removed after ligation, leaving the aortic constriction in place. The incision was closed and the animals were allowed to recover. Analgesia was provided before the mice awoke from anesthesia. Sham surgery utilized the same procedure but without aortic ligation. • Echocardiography.

[2] = system: enzymes involved in purine and pyrimidine metabolism; conditions: Takano et al., Life Sciences 2005; cited from earlier work
[3] = Schumacher, Expert Opin. Invest. Drugs 2005; cited from earlier work
[4] = sham-operated mice, three-week treatment
[5] = sham-operated mice, three-week treatment, versus vehicle

Row | Structure (SMILES) | Anterior wall thickness at end-diastole ([1]; TAC mice) | Anterior wall thickness at end-systole ([1]; TAC mice) | LV ejection fraction ([1]; TAC mice) | Lung weight ([1]; TAC mice) [mg] | Lung/body weight ([1]; TAC mice) [mg/g] | Posterior wall thickness at end-diastole ([1]; TAC mice) | Posterior wall thickness at end-systole ([1]; TAC mice) | Ventricle weight ([1]; TAC mice) | Ventricle/body weight ([1]; TAC mice) | Survival rate ([1]; TAC mice) [%] | Plasma uric acid ([1]; TAC mice, three-week treatment) | TAC-induced ventricular fibrosis ([1]; TAC mice, three-week treatment) | Anterior wall thickness at end-diastole ([1]; sham mice) [mm] | Anterior wall thickness at end-systole ([1]; sham mice) [mm] | LV ejection fraction ([1]; sham mice) | LV fractional shortening ([1]; sham mice) | Lung/body weight ([1]; sham mice) [mg/g] | Posterior wall thickness at end-diastole ([1]; sham mice) [mm] | Posterior wall thickness at end-systole ([1]; sham mice) | Ventricle/body weight ([1]; sham mice) [mg/g] | further results
1 | Cc1nc(-c2ccc(OCC(C)C)c(C#N)c2)sc1C(=O)O [febuxostat, 2-[3-cyano-4-(2-methylpropoxy)phenyl]-4-methylthiazole-5-carboxylic acid] | 0.85 ± 0.02^a mm | 1.19 ± 0.02^a mm | 63.9 ± 1.9^a % | 170 ± 17 | 6.59 ± 0.64 | 0.84 ± 0.02^a mm | 1.18 ± 0.02^a mm | 158 ± 6^a mg | 6.11 ± 0.21^a mg/g | 96 | decreased | not affected | 0.72 ± 0.02 | 1.18 ± 0.04 | 85.5 ± 1.6^a % | 48.3 ± 2.2^a % | 5.42 ± 0.11 | 0.72 ± 0.02 | 1.18 ± 0.04^a mm | 3.94 ± 0.07 | LV end-diastolic wall thickness ([1]; TAC mice, three-week treatment): unchanged; TAC-induced cardiac myocyte hypertrophy ([1]; TAC mice, three-week treatment): no effect; Improvement (increase) of LV ejection fraction ([1]; TAC mice, three-week treatment, versus vehicle): ~10%; End-diastolic wall thickness [1, 4]: did not change; Plasma uric acid [1, 4]: significantly decreased; Increase in LV ejection fraction [1, 5]: ~9%; Increase in LV fractional shortening [1, 5]: ~15%; Cross-inhibition on other purine and pyrimidine metabolism enzymes such as purine nucleoside phosphorylase and orotidine-5′-monophosphate decarboxylase [2]: avoids the cross-inhibition; Route of elimination [3]: hepatic metabolism
2 | Oc1ncnc2[nH]ncc12 [allopurinol] | 0.87 ± 0.02^a mm | 1.20 ± 0.03^a mm | 60.2 ± 2.2^a % | 166 ± 16 | 6.98 ± 0.94 | 0.88 ± 0.02^a mm | 1.20 ± 0.03^a mm | 153 ± 6^a mg | 6.27 ± 0.36^a mg/g | 76 | decreased | not affected | 0.74 ± 0.01 | 1.11 ± 0.04 | 77.7 ± 2.1% | 40.1 ± 2.0% | 5.40 ± 0.14 | 0.74 ± 0.01 | 1.11 ± 0.03 mm | 4.13 ± 0.12 | LV end-diastolic diameter ([1]; TAC mice): 4.21 ± 0.08^a mm; LV end-systolic diameter ([1]; TAC mice): 3.09 ± 0.10^a mm; LV fractional shortening ([1]; TAC mice): 26.8 ± 1.4^a %; Lung/body weight ([1]; TAC mice, listed as AL): no significant effect; Ventricle/body weight ([1]; TAC mice, listed as AL): no significant effect; LV function and dimensions (echocardiography) ([1]; TAC mice, three-week treatment, versus vehicle-treated TAC mice): no effect; LV end-diastolic diameter ([1]; sham mice): 3.71 ± 0.06 mm; LV end-systolic diameter ([1]; sham mice): 2.22 ± 0.07 mm; Lung weight ([1]; sham mice): 131 ± 3 mg; Ventricle weight ([1]; sham mice): 100 ± 3 mg; Lung weight ([1]; sham mice, listed as AL): no significant effects; Lung/body weight ([1]; sham mice, listed as AL): no significant effects; Ventricle weight ([1]; sham mice, listed as AL): no significant effects; Ventricle/body weight ([1]; sham mice, listed as AL): no significant effects; LV function and dimensions (any of the parameters evaluated by echocardiography) [1, 4]: no effect; Plasma uric acid [1, 4]: significantly decreased; Cross-inhibition on other purine and pyrimidine metabolism enzymes such as purine nucleoside phosphorylase and orotidine-5′-monophosphate decarboxylase [2]: cross-inhibition; Route of elimination [3]: mainly cleared by the kidneys
